According to BindingDB's records for doi:10.1016/j.bmcl.2007.10.101 (Solvay Pharmaceuticals, 2008):

Target: Neuronal acetylcholine receptor subunit alpha-4 (Rattus norvegicus, UniProt P09483)
Sequence (P09483 whole entry): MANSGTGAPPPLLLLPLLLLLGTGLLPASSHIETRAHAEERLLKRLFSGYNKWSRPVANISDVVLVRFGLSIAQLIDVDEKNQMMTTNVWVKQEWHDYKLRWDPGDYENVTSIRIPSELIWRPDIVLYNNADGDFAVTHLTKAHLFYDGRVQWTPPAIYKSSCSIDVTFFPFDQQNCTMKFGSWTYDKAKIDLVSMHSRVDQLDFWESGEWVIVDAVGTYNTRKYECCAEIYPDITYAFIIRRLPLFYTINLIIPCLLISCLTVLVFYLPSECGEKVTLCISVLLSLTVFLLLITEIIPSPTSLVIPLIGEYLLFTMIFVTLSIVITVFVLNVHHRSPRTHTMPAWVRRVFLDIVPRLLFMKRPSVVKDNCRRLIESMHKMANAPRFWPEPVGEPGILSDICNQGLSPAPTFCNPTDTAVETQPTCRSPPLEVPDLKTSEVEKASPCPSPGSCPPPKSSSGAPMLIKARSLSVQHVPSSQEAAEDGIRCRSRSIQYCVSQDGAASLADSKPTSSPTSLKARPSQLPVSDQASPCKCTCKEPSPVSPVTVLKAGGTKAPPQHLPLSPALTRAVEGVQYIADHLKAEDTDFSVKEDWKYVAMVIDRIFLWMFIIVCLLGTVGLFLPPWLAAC

c1cnc2[nH]c(C3CCCNC3)cc2c1 (stereo unspecified) [CAS_24759729]
Ki: > 10 µM
